Data on three molecules can be found in the NIST ThermoML archive (doi:10.1021/je800155q).

A short description of series [1]: molar enthalpy of vaporization or sublimation. The settings on record: 298.15 K, Calvet Microcalorimeter.
For series [2] the following is noted: Crystal; DTA.

Numbers after ± are expanded uncertainties.

Regarding `CC(C)(C)c1cccc(C(C)(C)C)n1` [2,6-di-tert-butylpyridine], the molar enthalpy in series [1] (Liquid) is 13.5 ± 0.574 kcal/mol. Regarding `CC(C)(C)c1ccncc1` [4-(1,1-dimethylethyl)pyridine], the molar enthalpy in series [1] (Liquid) was 13 ± 0.621 kcal/mol. For `CC(C)(C)c1cc(C(C)(C)C)nc(C(C)(C)C)c1` [pyridine, 2,4,6-tris(1,1-dimethylethyl)-], in series [2], the Normal melting temperature stood at 68 ± 2 °C. For the same molecule, in series [1] (Crystal), the molar enthalpy amounted to 18.7 ± 0.813 kcal/mol.
